We go through five molecules from publication PMC9228872, “Repositioning of Quinazolinedione-Based Compounds on Soluble Epoxide Hydrolase (sEH) through 3D Structure-Based Pharmacophore Model-Driven Investigation” (Molecules, 2022).

SMILES strings stand for the structures.

Test [1] deals with T1, soluble epoxide hydrolase (sEH) (Homo sapiens, UniProt P34913).
T1 construct: gene EPHX2; human recombinant sEH; C-terminal hydrolase domain activity measured
T1 sequence (P34913 1-555): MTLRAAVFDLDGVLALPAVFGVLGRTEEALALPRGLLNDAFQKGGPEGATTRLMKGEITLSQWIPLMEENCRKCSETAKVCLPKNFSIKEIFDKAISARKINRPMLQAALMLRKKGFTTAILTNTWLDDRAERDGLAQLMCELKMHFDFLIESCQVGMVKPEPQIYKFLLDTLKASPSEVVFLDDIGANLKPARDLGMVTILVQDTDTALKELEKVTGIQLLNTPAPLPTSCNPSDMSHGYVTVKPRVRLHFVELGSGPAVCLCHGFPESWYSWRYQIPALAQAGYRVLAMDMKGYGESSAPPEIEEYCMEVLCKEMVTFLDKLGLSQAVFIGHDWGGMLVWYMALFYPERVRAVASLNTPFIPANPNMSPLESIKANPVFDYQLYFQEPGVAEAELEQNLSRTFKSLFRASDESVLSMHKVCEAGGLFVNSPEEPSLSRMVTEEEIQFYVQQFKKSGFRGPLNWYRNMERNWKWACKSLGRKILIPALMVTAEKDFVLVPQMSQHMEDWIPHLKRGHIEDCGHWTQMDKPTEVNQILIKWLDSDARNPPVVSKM
Nature of the test: cell-free fluorescence assay with PHOME substrate, single concentration […]. It counts as biochemical. As to conditions: read-out: sEH Residual Activity (%).

Test [2] addresses T1, soluble epoxide hydrolase (sEH). Briefly: cell-free fluorescence assay with PHOME substrate, concentration-response. The class given is biochemical.

The IC50 is the concentration needed to halve the response being measured. High values mean a need for much substance, low ones inhibition by little substance.

On to `O=C(CCCCCn1c(=O)[nH]c2ccccc2c1=O)Nc1ccc(I)nc1` [compound 7, 6-(2,4-dioxo-1,2-dihydroquinazolin-3(4H)-yl)-N-(6-iodopyridin-3-yl)hexanamide], for which the remaining activity at 10 µM in test [1] was 67.2 ± 4.4%.

`O=C(CCCCCn1c(=O)[nH]c2ccccc2c1=O)Nc1ccc2c(c1)OCCO2` [compound 4, N-(2,3-dihydrobenzo[b][1,4]dioxin-6-yl)-6-(2,4-dioxo-1,2-dihydroquinazolin-3(4H)-yl)hexanamide]: inhibition in test [2] was half-maximal at 4.5 ± 1 µM (IC50). Consider `O=C(CCCCCCn1c(=O)[nH]c2ccccc2c1=O)Nc1cncc(Br)c1` [compound 6, N-(5-bromopyridin-3-yl)-7-(2,4-dioxo-1,2-dihydroquinazolin-3(4H)-yl)heptanamide], for which the remaining activity at 10 µM in test [1] is 48.6 ± 3.8%.

As for `O=C(CCCCn1c(=O)[nH]c2ccccc2c1=O)Nc1ccc2c(c1)OCCO2` [compound 3, N-(2,3-dihydrobenzo[b][1,4]dioxin-6-yl)-5-(2,4-dioxo-1,2dihydroquinazolin-3(4H)yl)pentanamide], it took 8.8 ± 1.5 µM to reach half-maximal inhibition in test [2] (IC50).

For `O=C(CCCCCn1c(=O)[nH]c2ccccc2c1=O)Nc1ccc2ncsc2c1` [compound 8, N-(benzo[d]thiazol-6-yl)-6-(2,4-dioxo-1,2-dihydroquinazolin-3(4H)-yl)hexanamide], the remaining activity at 10 µM in test [1] amounted to 51.7 ± 3.3%.
